Tests used:
[1] = tested on: HFD-fed C57BL/6 mice; test: Therapy study in insulin-resistant obese HFD-fed (DIO) mice; conditions: CFE 200 mg/kg/d or RGZ 4 mg/kg/d
[2] = target: T1, PPARα (Homo sapiens, UniProt Q07869); test: Reporter gene assay of transcriptional activation, PPARα (HEK 293, GAL4-PPAR-LBD); format: cell-based; conditions: relative to reference compound GW7647
T1 construct: HEK 293 cells were stably expressing a GAL4-PPAR-LBD fusion protein and an UAS-beta-lactamase reporter gene; host or cells: HEK 293
T1 sequence (Q07869 239-466 limits assumed): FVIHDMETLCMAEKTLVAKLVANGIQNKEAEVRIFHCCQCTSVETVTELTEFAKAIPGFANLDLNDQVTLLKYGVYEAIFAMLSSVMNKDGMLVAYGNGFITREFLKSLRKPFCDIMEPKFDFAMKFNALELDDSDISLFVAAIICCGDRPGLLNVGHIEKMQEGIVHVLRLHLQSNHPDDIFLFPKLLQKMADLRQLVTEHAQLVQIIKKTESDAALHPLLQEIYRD
Procedure: Transcriptional activation of PPARs was assessed in cellular reporter gene assays according to the manufacturer’s protocols (GeneBLAzer PPAR alpha/gamma/delta Assay, Life Technologies). Briefly, HEK 293 cells were stably expressing a GAL4-PPAR-LBD fusion protein and an UAS-beta-lactamase reporter gene. Cells were incubated with different concentrations of compounds resulting in differential expression of the reporter gene. Binding and activation assays were measured with the POLARstar Omega (BMG LABTECH, Offenburg, Germany). Data were fitted using GraphPad Prism 5.0 according equation: Y=Bottom + (Top-Bottom)/(1+10^((LogEC50-X)*HillSlope)) with variable Hill slope.

[3] = tested on: PPARα target genes in HepG2 cells; test: qPCR gene expression in HepG2 hepatocytes, with PPARα siRNA knockdown; conditions: 300 µg/ml CFE or 10 µM GW7647, 24 h, vs vehicle
Procedure: Specificity of PPARα-driven modulation was investigated in siRNA-mediated knockdown in human hepatocytes and subsequent real-time PCR detection. Therefore, HepG2 cells were seeded in 24-well-plates (Nunc) at a density of 40,000 cells per well.

Efficacy PPARα [2]	Compound	Gene expression of inflammatory markers in WAT ([1]; 6 weeks, qPCR)	HOMA-IR insulin resistance, decrease ([1]; after 2 weeks)	Expression of PPARα target genes (ACOX2, CPT 2, ECH1, HMGCS2) [3]
	CN(CCOc1ccc(CC2SC(=O)NC2=O)cc1)c1ccccn1 (stereo not shown) [RGZ, rosiglitazone]	remained largely unchanged	67%	
100%	CC(C)(Sc1ccc(CCN(CCCCC2CCCCC2)C(=O)NC2CCCCC2)cc1)C(=O)O [GW7647]			significantly induced expression
